In assay [1] the test system is HAP1 MTAP-intact cell line. The assay can be described thus: SDMA in-cell western assay, HAP1 MTAP-intact. To be noted: HAP1 MTAP-intact, read-out: MTAP HAP1 intact IC50. The assay is classed as cell-based. The method, boiled down:
(§1)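 IC50 values come from SDMA signal quantified by in-cell western in two HAP1 lines, one with native MTAP levels and one lacking MTAP.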

Assay [2] has as its target T1, PRMT5 (Homo sapiens, UniProt O14744).
T1 construct: purchased Viva (custom protein)
The assay can be described thus: PRMT5 biochemical IC50 assay with SAM as cofactor. The settings on record: PRMT5, SAM as cofactor; read-out: SAM IC50.

The subject of assay [3] is HAP1 MTAP-deleted cell line. The assay can be described thus: SDMA in-cell western assay, HAP1 MTAP-deleted. The settings on record: for IC50: HAP1 MTAP-deleted, read-out: HAP 1 MTAP deleted IC50; for MTAP intact/deleted ratio: IC50 ratio HAP1 MTAP-intact / HAP1 MTAP-deleted. The assay is classed as cell-based. In a few lines:
as §1

Assay [4] deals with T1, PRMT5. In words: PRMT5 biochemical IC50 assay with no cofactor. To be noted: PRMT5, no cofactor; read-out: No Cofactor/ rel IC50. From the text:
Table 1 indicates IC50 values (μM) against PRMT5 for exemplary compounds in the presence of SAM as cofactor, with no cofactor, and with MTA as cofactor, respectively (columns 4-6). […] Ki values can be calculated from the IC50 values as described in the Examples section. As detailed in the Examples section, for the assay performed in the presence of SAM, IC50=Ki×1.5 (Ki=IC50/1.5).

Assay [5] deals with T1, PRMT5. In words: PRMT5 biochemical IC50 assay with MTA as cofactor. The settings on record: PRMT5, MTA as cofactor; read-out: MTA IC50.
The subject of assay [6] is HAP1 MTAP-deleted cell line. The assay can be described thus: Viability assay, MTAP-deleted cell line. It counts as cell-based. The settings on record: MTAP-deleted cell line, read-out: HAP1 MTAP deleted viability. The source says: Table 1 additionally indicates IC50 values in a viability assay for the MTAP-deleted cell line (column 10), indicating the effect of treatment with compound on cell survival.

Where [7] appears, read: Homo sapiens, HAP1, SDMA in-cell western.
Where [8] appears, read: Homo sapiens, HAP1, viability assay.

Structures are written as SMILES. Like-named read-outs stand apart in the source and are kept apart here. Some results are limits rather than exact numbers.

T1 sequence (O14744 whole entry): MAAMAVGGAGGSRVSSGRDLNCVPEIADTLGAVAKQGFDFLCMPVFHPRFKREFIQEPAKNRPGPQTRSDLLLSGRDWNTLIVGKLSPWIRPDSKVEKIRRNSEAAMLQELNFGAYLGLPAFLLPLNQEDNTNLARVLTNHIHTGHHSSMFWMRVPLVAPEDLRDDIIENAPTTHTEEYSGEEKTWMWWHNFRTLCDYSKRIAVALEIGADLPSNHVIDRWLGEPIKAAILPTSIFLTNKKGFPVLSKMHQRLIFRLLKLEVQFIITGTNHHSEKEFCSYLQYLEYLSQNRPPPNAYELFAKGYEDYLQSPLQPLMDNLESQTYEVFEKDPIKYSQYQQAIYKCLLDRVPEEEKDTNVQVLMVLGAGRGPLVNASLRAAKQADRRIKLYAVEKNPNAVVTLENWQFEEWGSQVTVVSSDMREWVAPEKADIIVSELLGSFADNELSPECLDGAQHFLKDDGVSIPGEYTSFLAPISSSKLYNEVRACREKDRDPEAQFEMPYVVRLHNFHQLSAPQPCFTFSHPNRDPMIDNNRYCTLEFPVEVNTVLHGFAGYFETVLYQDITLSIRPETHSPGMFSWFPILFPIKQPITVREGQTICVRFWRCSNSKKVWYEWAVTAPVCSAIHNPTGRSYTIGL
T1 sequence (Q9BQA1 whole entry partner): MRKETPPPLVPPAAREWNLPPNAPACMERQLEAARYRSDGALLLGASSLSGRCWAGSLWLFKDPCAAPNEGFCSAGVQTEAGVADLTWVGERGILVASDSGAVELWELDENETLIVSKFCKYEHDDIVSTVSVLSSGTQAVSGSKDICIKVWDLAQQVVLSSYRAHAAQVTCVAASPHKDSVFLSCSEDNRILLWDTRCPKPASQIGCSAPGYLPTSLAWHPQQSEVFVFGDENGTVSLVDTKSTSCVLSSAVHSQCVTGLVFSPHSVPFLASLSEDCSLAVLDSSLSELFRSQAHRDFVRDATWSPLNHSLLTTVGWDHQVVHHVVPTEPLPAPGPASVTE

Regarding `Cc1cc(NC(=O)C(=O)N2CCCC[C@H]2c2ccncc2)cnc1N` (single isomer, unassigned) [Compound 47], the IC50 in assay [1] (setting [7]) is greater than 1000 nM; on PRMT5 [2], greater than 500 nM; in assay [3] (setting [7]) it was greater than 1000 nM; at PRMT5 [4], greater than 500 nM; at PRMT5 [5], greater than 500 nM; in assay [6] (setting [8]), greater than 10000 nM. The “MTAP intact/deleted ratio” value in assay [3] (SDMA in-cell western) is listed as “C (an IC50 ratio of less than 3 fold)”.

With `Cc1cc(NC(=O)C(=O)N2CCCC[C@@H]2c2ccncc2)cnc1N` (single isomer, unassigned) [Compound 50], the IC50 is greater than 1000 nM in assay [1] (setting [7]); 50 to 500 nM on PRMT5 [2]; 100 to 1000 nM in assay [3] (setting [7]); 50 to 500 nM on PRMT5 [4]; less than 50 nM at PRMT5 [5]; greater than 10000 nM in assay [6] (setting [8]). For the same compound, the “MTAP intact/deleted ratio” value in assay [3] (SDMA in-cell western) was “B (an IC50 ratio greater than or equal to 3 fold but lower than 10 fold)”.

As for `Cc1cc(NC(=O)C(=O)N2CCCC[C@@H]2c2ccccc2)cnc1N` (single isomer, unassigned) [Compound 51], the IC50 in assay [1] (setting [7]) is greater than 1000 nM; at PRMT5 [2] it was 50 to 500 nM; in assay [3] (setting [7]), 100 to 1000 nM; on PRMT5 [4], 50 to 500 nM; at PRMT5 [5], less than 50 nM; in assay [6] (setting [8]), greater than 10000 nM. Besides, the “MTAP intact/deleted ratio” value in assay [3] (SDMA in-cell western) is on record as “B (an IC50 ratio greater than or equal to 3 fold but lower than 10 fold)”.

Turning to `Cc1cc(NC(=O)C(=O)N2CC(C)(C)CCC2c2ccccc2)cnc1N` (single isomer, unassigned) [Compound 52, N-(6-amino-5-methylpyridin-3-yl)-2-(5,5-dimethyl-2-phenylpiperidin-1-yl)-2-oxoacetamide], the IC50 in assay [1] (SDMA in-cell western) was 100 to 1000 nM; at PRMT5 [2] it was 50 to 500 nM; in assay [3] (SDMA in-cell western), less than 100 nM; at PRMT5 [4], 50 to 500 nM; on PRMT5 [5] it was less than 50 nM; in assay [6] (viability assay), 1000 to 10000 nM. Further, the “MTAP intact/deleted ratio” value in assay [3] (SDMA in-cell western) is reported as “A (an IC50 ratio greater than or equal to 10 fold)”.

On to `Cc1cccc([C@H]2CCCCN2C(=O)C(=O)Nc2cnc(N)c(C)c2)c1` (single isomer, unassigned) [Compound 54], for which the IC50 in assay [1] (setting [7]) is greater than 1000 nM; at PRMT5 [2], 50 to 500 nM; in assay [3] (setting [7]), 100 to 1000 nM; at PRMT5 [4], 50 to 500 nM; at PRMT5 [5], less than 50 nM; in assay [6] (setting [8]), 1000 to 10000 nM. The “MTAP intact/deleted ratio” value in assay [3] (SDMA in-cell western) is listed as “A (an IC50 ratio greater than or equal to 10 fold)”.

With `Cc1cc(NC(=O)C(=O)N2CCCC[C@H]2c2ccccc2)cnc1N` (single isomer, unassigned) [Compound 55], the IC50 in assay [1] (setting [7]) is greater than 1000 nM; at PRMT5 [2], greater than 500 nM; in assay [3] (setting [7]), greater than 1000 nM; on PRMT5 [4], greater than 500 nM; at PRMT5 [5], 50 to 500 nM; in assay [6] (setting [8]), greater than 10000 nM. Further, the “MTAP intact/deleted ratio” value in assay [3] (SDMA in-cell western) was “C (an IC50 ratio of less than 3 fold)”.

As for `Cc1cccc([C@@H]2CCCCN2C(=O)C(=O)Nc2cnc(N)c(C)c2)c1` (single isomer, unassigned) [Compound 57], the IC50 in assay [1] (setting [7]) was greater than 1000 nM; at PRMT5 [2] it was greater than 500 nM; in assay [3] (setting [7]) it was greater than 1000 nM; on PRMT5 [4], greater than 500 nM; at PRMT5 [5] it was 50 to 500 nM; in assay [6] (setting [8]), greater than 10000 nM. The “MTAP intact/deleted ratio” value in assay [3] (SDMA in-cell western) was “C (an IC50 ratio of less than 3 fold)”.

As for `Cc1cc(NC(=O)C(=O)N2CC(C)(C)CCC2c2ccccc2)cnc1N` (single isomer, unassigned) [Compound 58, N-(6-amino-5-methylpyridin-3-yl)-2-(5,5-dimethyl-2-phenylpiperidin-1-yl)-2-oxoacetamide], the IC50 in assay [1] (SDMA in-cell western) was greater than 1000 nM; on PRMT5 [2] it was greater than 500 nM; in assay [3] (SDMA in-cell western) it was greater than 1000 nM; on PRMT5 [4] it was greater than 500 nM; on PRMT5 [5], greater than 500 nM; in assay [6] (viability assay) it was greater than 10000 nM. Also, the “MTAP intact/deleted ratio” value in assay [3] (SDMA in-cell western) was “C (an IC50 ratio of less than 3 fold)”.

As to `Cc1cc(NC(=O)C(=O)N2C[C@H]3CC[C@H](C3)[C@@H]2c2ccccc2)cnc1N` (single isomer, unassigned) [Compound 63], the IC50 in assay [1] (setting [7]) was greater than 1000 nM; at PRMT5 [2] it was greater than 500 nM; in assay [3] (setting [7]), greater than 1000 nM; on PRMT5 [4], greater than 500 nM; at PRMT5 [5] it was greater than 500 nM; in assay [6] (setting [8]), greater than 10000 nM. In addition, the “MTAP intact/deleted ratio” value in assay [3] (SDMA in-cell western) is “C (an IC50 ratio of less than 3 fold)”.

`Cc1cc(NC(=O)C(=O)N2C[C@@H]3CC[C@@H](C3)[C@H]2c2ccccc2)cnc1N` (single isomer, unassigned) [Compound 64]: the IC50 in assay [1] (setting [7]) was greater than 1000 nM; at PRMT5 [2], 50 to 500 nM; in assay [3] (setting [7]), less than 100 nM; on PRMT5 [4] it was 50 to 500 nM; on PRMT5 [5], less than 50 nM; in assay [6] (setting [8]), greater than 10000 nM. In addition, in assay [3] (SDMA in-cell western), the “MTAP intact/deleted ratio” value is listed as “A (an IC50 ratio greater than or equal to 10 fold)”.

As for `Cc1cc(NC(=O)C(=O)N2C[C@H]3CC[C@H](C3)[C@H]2c2ccccc2)cnc1N` (single isomer, unassigned) [Compound 65], the IC50 in assay [1] (setting [7]) was greater than 1000 nM; on PRMT5 [2], 50 to 500 nM; in assay [3] (setting [7]), less than 100 nM; on PRMT5 [4], 50 to 500 nM; on PRMT5 [5] it was 50 to 500 nM; in assay [6] (setting [8]), 1000 to 10000 nM. Also, in assay [3] (SDMA in-cell western), the “MTAP intact/deleted ratio” value was “A (an IC50 ratio greater than or equal to 10 fold)”.

As for `Cc1cncc(NC(=O)C(=O)N2C[C@H](C)CC[C@H]2c2ccc(N)cc2)c1` (single isomer, unassigned) [Compound 67], the IC50 is greater than 1000 nM in assay [1] (setting [7]); 50 to 500 nM on PRMT5 [2]; greater than 1000 nM in assay [3] (setting [7]); 50 to 500 nM at PRMT5 [4]; 50 to 500 nM on PRMT5 [5]; greater than 10000 nM in assay [6] (setting [8]). Also, in assay [3] (SDMA in-cell western), the “MTAP intact/deleted ratio” value is recorded as “B (an IC50 ratio greater than or equal to 3 fold but lower than 10 fold)”.

As for `Cc1cncc(NC(=O)C(=O)N2C[C@H](C)CC[C@H]2c2cccs2)c1` (single isomer, unassigned) [Compound 68], the IC50 in assay [1] (setting [7]) was greater than 1000 nM; at PRMT5 [2], 50 to 500 nM; in assay [3] (setting [7]), 100 to 1000 nM; at PRMT5 [4], 50 to 500 nM; on PRMT5 [5], less than 50 nM; in assay [6] (setting [8]), greater than 10000 nM. In addition, the “MTAP intact/deleted ratio” value in assay [3] (SDMA in-cell western) is “A (an IC50 ratio greater than or equal to 10 fold)”.

In the case of `Cc1cc(NC(=O)C(=O)N2CCCC[C@H]2c2cccnc2)cnc1N` (single isomer, unassigned) [Compound 69], the IC50 in assay [1] (setting [7]) is greater than 1000 nM; on PRMT5 [2], 50 to 500 nM; in assay [3] (setting [7]), 100 to 1000 nM; on PRMT5 [4], 50 to 500 nM; on PRMT5 [5], less than 50 nM; in assay [6] (setting [8]), greater than 10000 nM. Besides, the “MTAP intact/deleted ratio” value in assay [3] (SDMA in-cell western) was “A (an IC50 ratio greater than or equal to 10 fold)”.

For the compound `CC(=O)N1CCC(c2cccc(C3CCCCN3C(=O)C(=O)Nc3cncc(C)c3)c2)CC1` (single isomer, unassigned) [Compound 73], the IC50 in assay [1] (setting [7]) is greater than 1000 nM; on PRMT5 [2] it was greater than 500 nM; in assay [3] (setting [7]), greater than 1000 nM; on PRMT5 [4], greater than 500 nM; at PRMT5 [5] it was greater than 500 nM; in assay [6] (setting [8]) it was greater than 10000 nM. Besides, in assay [3] (SDMA in-cell western), the “MTAP intact/deleted ratio” value is “C (an IC50 ratio of less than 3 fold)”.

The values above are taken from patent US11999727B2 (Tango Therapeutics, Inc., priority 2020, dated 2024).
